Results from US10351915B2 (Berg LLC, priority 2009, dated 2019).

Assays:
Format in all cases: cell-based
[1] = system: MCF-7 breast cancer cells; assay: Oxygen consumption rate (OCR), SeaHorse XF analyzer; details: absence and presence of stressors
From the text: (§1) (SeaHorse Biosciences Inc, North Billerica, Mass.).
(§2) In contrast, cancer cells (e.g., MCF-7, PaCa-2) are inherently primed to culture at higher levels of glucose compared to normal cells due to their glycolytic phenotype for maintenance in culture.

[2] = system: PaCa-2 pancreatic cancer cells; assay: as above; details: absence and presence of stressors
From the text: as §1, §2

various cell types = assay: Minimal CoQ10 concentration and treatment time for induction of early apoptosis (Bcl-2, caspase, annexin V)
Protocol: CoQ10 treatment of cells was carried out as described in detail below in the Materials and Methods. Induction of apoptosis was assessed in the treated cells by monitoring indicators of early apoptosis (e.g., Bcl-2 expression, caspase activation and by using annexin V assays) as described below. From these studies, the minimal CoQ10 dosage, e.g., concentration of CoQ10 and time of treatment, required to induce apoptosis in the panel of cell lines was determined.
Cells were cultured in T-75 flasks with relevant medium supplemented with 10% Fetal Bovine Serum (FBS), 1% PSA (penicillin, streptomycin, amphotericin B) (Invitrogen and Cellgro) in a 37° C. incubator with 5% CO2 levels until 70-80% confluence was reached. To harvest cells for treatment, flasks were primed with 1 mL Trypsin, aspirated, trypsinized with an additional 3 mL, and incubated at 37° C. for […]. Cells were then neutralized with an equal volμme of media and the subsequent solution was centrifuged at […] for 8 minutes. The supernatant was aspirated and the cells were resuspended with 8.5 ml of media. A mixture of 500 ul of the resuspension and 9.5 ml of […] was read twice by a coulter counter and the appropriate number of cells to be seeded into each dish was determined. Control and concentration ranging from 0-200 μM groups were examined in triplicate. From a 500 μM CoQ-10 stock solution, serial dilutions were performed to achieve desired experimental concentration in appropriate dishes. Dishes were incubated in a 37° C. incubator with 5% CO2 levels for 0-72 hours depending on cell type and experimental protocol.
The volume of sample to load per well was determined using the raw mean concentration of protein obtained from the BCA protein assay. Approximately 30-60 μg of protein were loaded for each treatment time point. Proteins were run in triplicate on 12% Tris-HCl ready gels (Bio-Rad) or hand cast gels in 1× running buffer at 85 and 100 volts. Proteins were then transferred onto nitrocellulose paper for an hour at 100 volts, and blocked for another hour in a 5% milk solution. Membranes were placed in primary antibody (1 uL Ab:1000 uL TBST) (Cell Signaling) overnight at […] The following day, membranes were washed three times for ten minutes each with Tris-Buffered Saline Tween-20 (TBST), and secondary antibody (anti-rabbit; 1 uL Ab: 1000 uL TBST) was applied for an hour at […] Membranes were washed again three times for ten minutes with TBST and chemoluminescence using Pico or Femto substrate was completed (Pierce). Membranes were then developed at time intervals that produced the best visual results. After developing, membranes were kept in TBST at […] until Actin levels could be measured.
Cells were washed twice in PBS10X and resuspended in Binding Buffer (0.1 M HEPES, pH 7.4; 1.4 M NaCl; 25 mM CaCl2). Samples of 100 μl were added to a culture tube with 5 μl of annexin-PE dye or […]. The cells were mixed and incubated without light at room temperature for 15 minutes. After which, 400 μl of 1× Binding Buffer was added to each sample and they were subjected to analysis by flow cytometry.

PaCa-2 cells = assay: Extracellular acidification rate (ECAR), SeaHorse XF analyzer; details: normoxia, high glucose
Protocol: as §1
In contrast to normal cells, cancer cells are phenotypically primed to use high glucose for ATP generation (enhanced glycolysis) resulting in higher ECAR (Table 129, ECAR for untreated normoxia 17 mM) at 21 mpH/min. […] The associated decrease in OCR in these cells was likely associated with increased efficiency of the mitochondrial OXPHOS.

SCC cells = assay: Real-time PCR Heat Shock Protein Array
From the text: The control cells were untreated cells.
Heat Shock Arrays were run for SCC cells and the data of regulated genes is summarized below in Table 13.

COC1=C(OC)C(=O)C(C/C=C(\C)CC/C=C(\C)CC/C=C(\C)CC/C=C(\C)CC/C=C(\C)CC/C=C(\C)CC/C=C(\C)CC/C=C(\C)CC/C=C(\C)CCC=C(C)C)=C(C)C1=O [Q10, Coenzyme Q10]
OCR values [1]: consistent reduction in OCR values
OCR values [2]: consistent reduction in OCR values
Indication of Early apoptosis (Bcl-2, annexin V, or caspase activation) (various cell types; BONE: Ewing's sarcoma (NCI)): Extremely
Minimal treatment Time for induction of early apoptosis (various cell types; BONE: Ewing's sarcoma (NCI)): 1 h
Indication of Early apoptosis (Bcl-2, annexin V, or caspase activation) (various cell types; BONE: Osteosarcoma (143b)): Very Strong
Minimal treatment Time for induction of early apoptosis (various cell types; BONE: Osteosarcoma (143b)): 48 h
Indication of Early apoptosis (Bcl-2, annexin V, or caspase activation) (various cell types; BREAST: BT-20): Strong
Minimal treatment Time for induction of early apoptosis (various cell types; BREAST: BT-20): 48 h
Indication of Early apoptosis (Bcl-2, annexin V, or caspase activation) (various cell types; BREAST: MCF-7): Strong
Minimal treatment Time for induction of early apoptosis (various cell types; BREAST: MCF-7): 48 h
Indication of Early apoptosis (Bcl-2, annexin V, or caspase activation) (various cell types; BREAST: MDA MB 468): Strong
Minimal treatment Time for induction of early apoptosis (various cell types; BREAST: MDA MB 468): 48 h
Indication of Early apoptosis (Bcl-2, annexin V, or caspase activation) (various cell types; BREAST: SkBr-3): Very Strong
Minimal treatment Time for induction of early apoptosis (various cell types; BREAST: SkBr-3): 24 h
Indication of Early apoptosis (Bcl-2, annexin V, or caspase activation) (various cell types; BREAST: ZR-75): Slight
Minimal treatment Time for induction of early apoptosis (various cell types; BREAST: ZR-75): 72 h
Indication of Early apoptosis (Bcl-2, annexin V, or caspase activation) (various cell types; Heart: Aortic smooth muscle (HASMC)): None
Indication of Early apoptosis (Bcl-2, annexin V, or caspase activation) (various cell types; LIVER: Hep3B): Very Strong
Minimal treatment Time for induction of early apoptosis (various cell types; LIVER: Hep3B): 24 h
Indication of Early apoptosis (Bcl-2, annexin V, or caspase activation) (various cell types; LIVER: HepG2): Very Strong
Minimal treatment Time for induction of early apoptosis (various cell types; LIVER: HepG2): 24 h
Indication of Early apoptosis (Bcl-2, annexin V, or caspase activation) (various cell types; Mammary fiboblasts: 184A1 and 184B5): None
Indication of Early apoptosis (Bcl-2, annexin V, or caspase activation) (various cell types; Melanoma (Skmel 2)): Very Strong
Minimal treatment Time for induction of early apoptosis (various cell types; Melanoma (Skmel 2)): 24 h
Indication of Early apoptosis (Bcl-2, annexin V, or caspase activation) (various cell types; Melanoma (Skmel 28)): Strong
Minimal treatment Time for induction of early apoptosis (various cell types; Melanoma (Skmel 28)): 24 h
Indication of Early apoptosis (Bcl-2, annexin V, or caspase activation) (various cell types; PANCREAS: PaCa2): Very Strong
Minimal treatment Time for induction of early apoptosis (various cell types; PANCREAS: PaCa2): 24 h
Indication of Early apoptosis (Bcl-2, annexin V, or caspase activation) (various cell types; PROSTATE: PC3): Very Strong
Minimal treatment Time for induction of early apoptosis (various cell types; PROSTATE: PC3): 24 h
Indication of Early apoptosis (Bcl-2, annexin V, or caspase activation) (various cell types; SCC, Squamous cell carcinoma): Very Strong
Minimal treatment Time for induction of early apoptosis (various cell types; SCC, Squamous cell carcinoma): 24 h
Indication of Early apoptosis (Bcl-2, annexin V, or caspase activation) (various cell types; SKIN: Fibroblasts (nFib)): None
Indication of Early apoptosis (Bcl-2, annexin V, or caspase activation) (various cell types; SKIN: Keratinocytes (Heka, Hekn)): None
Indication of Early apoptosis (Bcl-2, annexin V, or caspase activation) (various cell types; SKIN: Melanocytes (Hema, LP)): None
effect on normal cells (various cell types; normal cells, including keratinocytes and dermal fibroblasts): increased proliferation and migration
efficacy of Coenzyme Q10 treatment (induction of apoptosis) (various cell types; oncogenic cell lines): greater in cell types that exhibited increased oncogenicity and/or greater metastatic potential
ECAR rates (PaCa-2 cells): significant decrease in ECAR rates
DNAJA1 Regulation (SCC cells; 100 μM Q10, at 6 hours): Up regulated at 6
DNAJB5 Regulation (SCC cells; 100 μM Q10, at 6 hours): Down regulated
DNAJB13 Regulation (SCC cells; 100 μM Q10, at 6 hours): Down regulated
DNAJC4 Regulation (SCC cells; 100 μM Q10, at 6 hours): Down regulated
DNAJC5B Regulation (SCC cells; 100 μM Q10, at 6 hours): Down regulated
DNAJC12 Regulation (SCC cells; 100 μM Q10, at 6 hours): Down regulated
HSPA8 Regulation (SCC cells; 100 μM Q10, at 6 hours): Up regulated at 6
HSPH1 Regulation (SCC cells; 100 μM Q10, at 6 hours): Up regulated at 6
CCT6B Regulation (SCC cells; 100 μM Q10, at 24 hours): Down regulated
